Measurements: US9309242B2, “Substituted pyrido[2,3-b]pyrazines as FGFR kinase inhibitors” (priority 2011, dated 2016)
Read-outs that look alike come from different tables or passages of the source.

Tests used:
[1] = target: FGFR3 (h) (Homo sapiens, UniProt P22607); experiment: FGFR3 (enzymatic assay), TR-FRET; format: biochemical; settings: average values if tested multiple times, read-out: FGFR 3 pIC50 (converted)
Text: Time-Resolved Fluorescence Resonance Energy Transfer (TR-FRET) signal (ex340 nm.

[2] = target: KDR (h) (Homo sapiens, UniProt P35968); experiment: KDR (VEGFR2) (enzymatic assay), TR-FRET; format: biochemical; settings: average values if tested multiple times, read-out: VEGFR 2 (KDR) pIC50 (converted)
Protocol: KDR (VEGFR2) (Enzymatic Assay)
In a final reaction volume of 30 μL, KDR (h) (150 ng/ml) was incubated with 50 mM HEPES pH 7.5, 6 mM MnCl2, 1 mM DTT, 0.1 mM Na3VO4, 0.01% Triton-X-100, 500 nM Btn-Flt3 and 3 μM ATP in the presence of compound (1% DMSO final). After incubation for 120 minutes at room temperature the reaction was stopped with 2.27 nM EU-anti P-Tyr, 7 mM EDTA, 31.25 nM SA-XL-665 and 0.02% BSA which was present for 60 minutes at room temperature. Time-Resolved Fluorescence Resonance Energy Transfer (TR-FRET) signal (ex340 nm. Em 620 nm, em 655 nm) was measured afterwards and results are expressed in RFU (Relative Fluorescence Units).

[3] = target: T1, Ba/F3-FGFR1-transfected cells (Homo sapiens, UniProt P11362); experiment: Ba/F3-FGFR1 (minus IL3) cellular proliferation assay, Alamar Blue; format: cell-based
T1 construct: BAF3-FGFR1 (MIN IL3) pIC50; other: minus IL3
T1 sequence (P11362 whole entry, change not shown): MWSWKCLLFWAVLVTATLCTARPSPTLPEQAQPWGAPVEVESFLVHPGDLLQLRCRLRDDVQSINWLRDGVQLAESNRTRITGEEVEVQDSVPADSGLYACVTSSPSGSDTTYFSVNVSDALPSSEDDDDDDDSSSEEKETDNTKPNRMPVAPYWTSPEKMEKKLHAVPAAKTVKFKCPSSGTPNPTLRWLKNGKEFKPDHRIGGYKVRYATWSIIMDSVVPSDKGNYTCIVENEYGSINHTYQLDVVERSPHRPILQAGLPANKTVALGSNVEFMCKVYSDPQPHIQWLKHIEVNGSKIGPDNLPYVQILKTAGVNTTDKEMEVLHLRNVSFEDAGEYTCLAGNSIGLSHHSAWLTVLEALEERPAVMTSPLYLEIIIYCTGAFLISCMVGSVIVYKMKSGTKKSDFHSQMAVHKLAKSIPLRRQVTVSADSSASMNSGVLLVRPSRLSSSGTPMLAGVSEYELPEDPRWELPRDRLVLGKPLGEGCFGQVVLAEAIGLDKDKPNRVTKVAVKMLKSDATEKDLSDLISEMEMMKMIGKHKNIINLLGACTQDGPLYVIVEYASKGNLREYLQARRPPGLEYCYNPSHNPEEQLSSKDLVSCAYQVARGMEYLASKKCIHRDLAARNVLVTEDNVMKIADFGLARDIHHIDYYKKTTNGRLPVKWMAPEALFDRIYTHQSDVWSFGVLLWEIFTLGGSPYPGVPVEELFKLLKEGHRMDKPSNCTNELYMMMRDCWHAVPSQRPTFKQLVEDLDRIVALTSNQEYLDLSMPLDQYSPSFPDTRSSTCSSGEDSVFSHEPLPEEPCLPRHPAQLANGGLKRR
Protocol: (§1) Ba/F3-FGFR1 (Minus IL3 or Plus IL3) (Cellular Proliferation Assay)
(§2) In a 384 well plate, 100 nl of compound dilution in DMSO was sprayed before adding 50 μl cell culture medium (phenol red free RPMI-1640, 10% FBS, 2 mM L-Glutamine and 50 μg/ml Gentamycin) containing 20000 cells per well of Ba/F3-FGFR1-transfected cells. Cells were put in an incubator at 37° C. and 5% CO2. After 24 hours, 10 μl of Alamar Blue solution (0.5 mM K3Fe(CN)6, 0.5 mM K4Fe(CN)6, 0.15 mM Resazurin and 100 mM Phosphate Buffer) was added to the wells, incubated for 4 hours at 37° C. and 5% CO2 before RFU's (Relative Fluorescence Units) (ex. 540 nm., em. 590 nm.) were measured in a fluororescence plate reader.

[4] = test system: Ba/F3-FGFR1-transfected cells; experiment: Ba/F3-FGFR1 (plus IL3) cellular proliferation assay, counterscreen with 10 ng/ml murine IL3; format: cell-based; settings: read-out: BAF3-FGFR1 (PLUS IL3) pIC50 (converted)
Protocol: as §1, §2
(§3) As a counterscreen the same experiment was performed in the presence of 10 ng/ml murine IL3.

[5] = target: T2, Ba/F3-KDR-transfected cells (Homo sapiens, UniProt P35968); experiment: Ba/F3-KDR (minus IL3) cellular proliferation assay, Alamar Blue; format: cell-based
T2 construct: BAF3-KDR (MIN IL3) pIC50; other: minus IL3
Protocol: Ba/F3-KDR (Minus IL3 or Plus IL3) (Cellular Proliferation Assay)
as §2, with “n1” for “nl”, “Ba/F3-KDR-transfected” for “Ba/F3-FGFR1-transfected”, “reader. […]” for “reader.”

[6] = target: Ba/F3-FGFR4-transfected cells (Homo sapiens, UniProt P22455); experiment: Ba/F3-FGFR4 cellular proliferation assay, Alamar Blue; format: cell-based
Ba/F3-FGFR4-transfected cells, sequence (P22455 whole entry, change not shown): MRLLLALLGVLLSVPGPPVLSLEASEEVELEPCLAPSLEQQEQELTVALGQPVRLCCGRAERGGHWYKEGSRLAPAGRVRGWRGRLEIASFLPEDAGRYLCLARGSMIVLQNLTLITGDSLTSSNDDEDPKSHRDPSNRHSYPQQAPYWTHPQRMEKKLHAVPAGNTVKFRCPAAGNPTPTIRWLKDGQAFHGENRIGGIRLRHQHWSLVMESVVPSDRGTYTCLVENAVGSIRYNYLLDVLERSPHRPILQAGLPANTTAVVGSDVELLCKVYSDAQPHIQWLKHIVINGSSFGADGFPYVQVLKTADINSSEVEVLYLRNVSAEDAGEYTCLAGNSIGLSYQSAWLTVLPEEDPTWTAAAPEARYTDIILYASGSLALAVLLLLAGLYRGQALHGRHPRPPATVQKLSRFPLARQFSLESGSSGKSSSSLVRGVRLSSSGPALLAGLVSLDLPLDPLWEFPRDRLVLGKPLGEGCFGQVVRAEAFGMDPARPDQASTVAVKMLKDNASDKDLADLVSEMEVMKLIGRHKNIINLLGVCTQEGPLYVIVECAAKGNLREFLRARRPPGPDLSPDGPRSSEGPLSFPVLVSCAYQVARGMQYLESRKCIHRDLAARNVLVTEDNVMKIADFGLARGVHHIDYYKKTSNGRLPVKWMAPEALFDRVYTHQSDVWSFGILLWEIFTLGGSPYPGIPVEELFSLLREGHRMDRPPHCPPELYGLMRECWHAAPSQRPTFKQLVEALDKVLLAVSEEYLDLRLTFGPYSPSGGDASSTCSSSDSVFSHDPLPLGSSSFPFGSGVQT
Protocol: Ba/F3-FGFR4 (Cellular Proliferation Assay)
as §2, with “n1” for “nl”, “Ba/F3-FGFR4-transfected” for “Ba/F3-FGFR1-transfected”

[7] = test system: Ba/F3-FGFR3-transfected cells; experiment: Ba/F3-FGFR3 (plus IL3) cellular proliferation assay, counterscreen with 10 ng/ml murine IL3; format: cell-based; settings: read-out: BAF3-FGFR3 (PLUS IL3) pIC50 (converted)
Protocol: (§4) Ba/F3-FGFR3 (Minus IL3 or Plus IL3) (Cellular Proliferation Assay)
as §2, with “Ba/F3-FGFR3-transfected” for “Ba/F3-FGFR1-transfected”
as §3

[8] = target: FGFR4 (h) (Homo sapiens, UniProt P22455); experiment: FGFR4 (enzymatic assay), TR-FRET; format: biochemical; settings: FGFR 4 pIC50, enzymatic assay; average values if tested multiple times
FGFR4 (h), sequence (P22455 22-802): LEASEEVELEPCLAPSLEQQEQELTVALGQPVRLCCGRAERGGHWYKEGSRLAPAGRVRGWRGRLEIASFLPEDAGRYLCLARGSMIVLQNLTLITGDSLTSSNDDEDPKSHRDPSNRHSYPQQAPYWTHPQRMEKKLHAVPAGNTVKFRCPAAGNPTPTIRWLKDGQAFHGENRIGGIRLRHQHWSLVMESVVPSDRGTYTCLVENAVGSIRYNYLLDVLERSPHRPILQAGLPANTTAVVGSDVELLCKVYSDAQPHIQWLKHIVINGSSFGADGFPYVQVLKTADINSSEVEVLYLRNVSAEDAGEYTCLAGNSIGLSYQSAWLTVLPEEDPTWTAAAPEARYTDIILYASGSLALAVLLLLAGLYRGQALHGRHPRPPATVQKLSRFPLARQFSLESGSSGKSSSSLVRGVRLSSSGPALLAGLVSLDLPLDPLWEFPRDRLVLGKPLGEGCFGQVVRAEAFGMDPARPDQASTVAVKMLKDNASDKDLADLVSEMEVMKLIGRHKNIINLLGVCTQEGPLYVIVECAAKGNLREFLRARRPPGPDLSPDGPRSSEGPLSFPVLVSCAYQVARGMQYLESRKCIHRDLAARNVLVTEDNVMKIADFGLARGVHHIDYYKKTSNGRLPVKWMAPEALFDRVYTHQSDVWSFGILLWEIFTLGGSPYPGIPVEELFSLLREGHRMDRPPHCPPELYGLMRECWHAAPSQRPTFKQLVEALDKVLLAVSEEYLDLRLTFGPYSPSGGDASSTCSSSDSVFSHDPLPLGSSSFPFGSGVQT

[9] = target: FGFR2 (h) (Homo sapiens, UniProt P21802); experiment: FGFR2 (enzymatic assay), TR-FRET; format: biochemical; settings: average values if tested multiple times
FGFR2 (h), sequence (P21802 22-821): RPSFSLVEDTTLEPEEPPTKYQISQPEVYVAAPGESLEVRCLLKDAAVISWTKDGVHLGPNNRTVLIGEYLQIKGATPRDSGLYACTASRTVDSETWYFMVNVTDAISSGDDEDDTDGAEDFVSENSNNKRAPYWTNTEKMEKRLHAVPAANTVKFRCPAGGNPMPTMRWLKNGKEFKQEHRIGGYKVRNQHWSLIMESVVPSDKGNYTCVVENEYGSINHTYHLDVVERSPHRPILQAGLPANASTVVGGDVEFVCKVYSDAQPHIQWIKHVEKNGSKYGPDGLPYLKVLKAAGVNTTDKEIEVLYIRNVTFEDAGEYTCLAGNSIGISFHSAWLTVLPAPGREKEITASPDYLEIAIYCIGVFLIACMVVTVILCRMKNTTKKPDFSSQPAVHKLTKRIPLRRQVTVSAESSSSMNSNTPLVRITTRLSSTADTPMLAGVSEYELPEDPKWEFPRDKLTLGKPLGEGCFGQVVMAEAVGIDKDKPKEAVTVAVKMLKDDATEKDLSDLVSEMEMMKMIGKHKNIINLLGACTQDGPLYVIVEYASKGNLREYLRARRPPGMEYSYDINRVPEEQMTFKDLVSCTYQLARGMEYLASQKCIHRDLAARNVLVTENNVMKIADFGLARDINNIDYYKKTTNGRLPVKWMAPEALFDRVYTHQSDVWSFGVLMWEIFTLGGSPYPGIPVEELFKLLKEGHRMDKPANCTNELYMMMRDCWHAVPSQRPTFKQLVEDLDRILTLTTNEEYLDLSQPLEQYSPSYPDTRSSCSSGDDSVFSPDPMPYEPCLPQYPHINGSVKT
Protocol: In a final reaction volume of 30 μL, FGFR2 (h) (150 ng/ml) was incubated with 50 mM HEPES pH 7.5, 6 mM MnCl2, 1 mM DTT, 0.1 mM Na3VO4, 0.01% Triton-X-100, 500 nM Btn-Flt3 and 0.4 μM ATP in the presence of compound (1% DMSO final).

[10] = target: FGFR1 (h) (Homo sapiens, UniProt P11362); experiment: FGFR1 (enzymatic assay), TR-FRET; format: biochemical; settings: average values if tested multiple times, read-out: FGFR 1 pIC50 (converted)
[11] = target: T3, Ba/F3-FGFR3-transfected cells (Homo sapiens, UniProt P22607); experiment: Ba/F3-FGFR3 (minus IL3) cellular proliferation assay, Alamar Blue; format: cell-based
T3 construct: BAF3-FGFR3 (MIN IL3) pIC50; other: minus IL3
T3 sequence (P22607 whole entry, change not shown): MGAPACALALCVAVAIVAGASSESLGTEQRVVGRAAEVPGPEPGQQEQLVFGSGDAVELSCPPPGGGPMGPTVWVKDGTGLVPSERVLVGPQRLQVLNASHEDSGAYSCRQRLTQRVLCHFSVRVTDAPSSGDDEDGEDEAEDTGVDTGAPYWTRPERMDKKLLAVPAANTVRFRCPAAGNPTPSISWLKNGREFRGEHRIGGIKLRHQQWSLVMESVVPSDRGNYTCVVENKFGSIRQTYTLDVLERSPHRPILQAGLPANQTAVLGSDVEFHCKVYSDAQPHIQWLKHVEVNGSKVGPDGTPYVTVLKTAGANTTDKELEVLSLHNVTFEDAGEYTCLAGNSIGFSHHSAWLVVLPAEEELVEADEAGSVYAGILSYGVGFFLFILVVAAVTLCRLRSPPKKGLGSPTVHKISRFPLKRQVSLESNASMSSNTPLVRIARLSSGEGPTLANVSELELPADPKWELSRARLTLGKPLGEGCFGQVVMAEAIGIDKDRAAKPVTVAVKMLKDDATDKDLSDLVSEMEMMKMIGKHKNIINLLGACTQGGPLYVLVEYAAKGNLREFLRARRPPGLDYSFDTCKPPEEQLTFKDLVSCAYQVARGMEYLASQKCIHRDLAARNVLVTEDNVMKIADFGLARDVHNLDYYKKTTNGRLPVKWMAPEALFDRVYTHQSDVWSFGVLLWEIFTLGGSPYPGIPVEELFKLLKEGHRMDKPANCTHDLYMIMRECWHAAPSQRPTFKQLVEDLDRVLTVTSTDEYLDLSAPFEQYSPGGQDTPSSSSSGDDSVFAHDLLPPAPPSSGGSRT
Protocol: as §4
as §2, with “Ba/F3-FGFR3-transfected” for “Ba/F3-FGFR1-transfected”, “reader. […]” for “reader.”

[12] = enzymatic assay, read-out: FGFR 2 pIC50 (converted)
[13] = plus IL3 (10 ng/ml murine IL3, counterscreen)

FGFR3 (h), sequence (P22607 23-806): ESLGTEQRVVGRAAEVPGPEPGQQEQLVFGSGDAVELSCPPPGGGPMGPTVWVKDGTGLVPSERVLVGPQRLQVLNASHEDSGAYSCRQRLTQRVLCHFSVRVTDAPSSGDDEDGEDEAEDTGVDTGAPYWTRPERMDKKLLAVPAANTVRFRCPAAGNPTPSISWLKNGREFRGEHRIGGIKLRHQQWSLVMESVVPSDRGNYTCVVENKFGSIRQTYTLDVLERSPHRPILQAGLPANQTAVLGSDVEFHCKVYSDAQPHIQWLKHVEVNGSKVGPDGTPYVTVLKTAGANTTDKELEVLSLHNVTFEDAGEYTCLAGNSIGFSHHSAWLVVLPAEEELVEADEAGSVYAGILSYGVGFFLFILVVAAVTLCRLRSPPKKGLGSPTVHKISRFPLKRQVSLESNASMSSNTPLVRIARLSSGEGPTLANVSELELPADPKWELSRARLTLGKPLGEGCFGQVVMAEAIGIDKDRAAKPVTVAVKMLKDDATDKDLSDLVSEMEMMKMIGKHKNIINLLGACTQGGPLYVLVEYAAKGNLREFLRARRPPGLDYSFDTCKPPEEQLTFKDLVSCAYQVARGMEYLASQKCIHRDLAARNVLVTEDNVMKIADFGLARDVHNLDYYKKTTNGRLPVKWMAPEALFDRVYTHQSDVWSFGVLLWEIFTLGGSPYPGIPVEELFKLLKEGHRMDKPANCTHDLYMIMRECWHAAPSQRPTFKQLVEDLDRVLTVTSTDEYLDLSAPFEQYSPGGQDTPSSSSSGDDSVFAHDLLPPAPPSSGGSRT

Structure (SMILES)	IC50 [1] [nM]	IC50 [2] [nM]	BAF3-FGFR1 (MIN IL3) pIC50 [3]	IC50 [4] [nM]	BAF3-KDR (MIN IL3) pIC50 [5]	BAF3-FGFR4 pIC50 [6]	IC50 [7] [nM]	IC50 [8] [nM]	IC50 ([9]; FGFR 2 pIC50, enzymatic assay) [nM]	IC50 [10] [nM]	BAF3-FGFR3 (MIN IL3) pIC50 [11]	IC50 [9, 12] [nM]	IC50 [4, 13] [nM]	IC50 [7, 13] [nM]
COc1cc(OC)cc(N(CCNC(C)C)c2ccc3ncc(-c4cnn(C)c4)nc3n2)c1 [Compound 1]	5.01	251	8.5	> 10000	5.6	~7.06	> 10000	25.1	25.1	5.01	8.1			
COc1cc(OC)c(F)c(N(CCNC(C)C)c2ccc3ncc(-c4cnn(C)c4)nc3n2)c1 [Compound 2]	3.16	79.4	8.3	> 10000	6.2	7.64	> 10000	7.94		2	8.0	5.01		
COc1cc(OC)c(F)c(/N=c2\ccc3ncc(-c4cnn(C)c4)nc3n2CCNC(C)C)c1F [Compound 6]	3.16	50.1	8.0		5.7			5.01		1	7.6	5.01	> 10000	> 10000
COc1cc(OC)cc(N(CC(O)C(F)(F)F)c2ccc3ncc(-c4cnn(C)c4)nc3n2)c1 (centres unmarked) [Compound 8]	2	126	7.6		5.3	6.66		3.16		1.26	7.6	6.31	> 10000	> 10000
COc1cc(OC)c(F)c(N(Cc2ncccn2)c2ccc3ncc(-c4cnn(C)c4)nc3n2)c1F [Compound 11]	7.08	398	7.4		6.3	~7.02		20		50.1		50.1	> 10000	> 10000
COc1cc(OC)cc(N(Cc2ncccn2)c2ccc3ncc(-c4cnn(C)c4)nc3n2)c1 [Compound 12]	2.51	39.8	7.3		5.5	6.26		12.6		1.58	7.1	3.98	> 10000	> 10000
COc1cc(OC)cc(N(CCCO)c2ccc3ncc(-c4cnn(C)c4)nc3n2)c1 [Compound 18]	1	50.1	7.4		5.5	~6.64		3.16		2	7.3	3.98	> 10000	> 10000
COc1cc(/N=c2\ccc3ncc(-c4cnn(C)c4)nc3n2CCCO)cc(OC)c1 [Compound 19]	0.316	5.01	8.0		6.4			0.398		0.398	8.0	1.26	> 10000	> 10000
COc1cc(OC)cc(N(CCO)c2ccc3ncc(-c4cnn(C)c4)nc3n2)c1 [Compound 21]	0.794	63.1	7.3		5.6	6.69		5.01		2	7.3	3.98	> 10000	> 10000
COc1cc(OC)c(F)c(N(Cc2ncc[nH]2)c2ccc3ncc(-c4cnn(C)c4)nc3n2)c1F [Compound 25]	2.51	79.4	8.8		6.7	~8.23		3.55		7.94	8.5	14.1	6310	> 10000
